Drawing on patent EP3409671B1, “ISOTHIAZOLE DERIVATIVES AS GPR120 AGONISTS FOR THE TREATMENT OF TYPE II DIABETES” (Janssen Pharmaceutica NV, priority 2014, dated 2015), this text covers EC50 for two compounds.

pEC50: −log10 of the molar value.

In this test the target is T1, Human GPR120 short form (Homo sapiens, UniProt Q5NUL3).
T1 construct: expressed in transfected cells
T1 sequence (Q5NUL3 1-361): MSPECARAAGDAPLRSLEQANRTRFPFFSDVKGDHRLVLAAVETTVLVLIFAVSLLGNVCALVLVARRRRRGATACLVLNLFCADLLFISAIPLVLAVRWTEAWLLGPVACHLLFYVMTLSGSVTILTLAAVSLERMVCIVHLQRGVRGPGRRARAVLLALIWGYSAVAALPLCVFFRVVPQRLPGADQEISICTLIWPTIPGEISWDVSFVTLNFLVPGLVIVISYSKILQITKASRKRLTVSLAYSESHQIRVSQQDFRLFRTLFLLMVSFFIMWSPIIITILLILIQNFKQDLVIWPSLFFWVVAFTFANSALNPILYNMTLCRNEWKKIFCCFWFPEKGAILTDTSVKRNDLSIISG
In words: Human GPR120 Calcium Flux Assay, Procedure Calcium A. The class given is cell-based. Particulars: HEK-293 cells expressing Human GPR120 short form, FLIPR, 2500 cells / well; read-out: GPR120 Ca^2+ Assay A EC50. From the text: This in vitro assay serves to assess test compound agonist activity against the short splice variant (SVS with Accession number NM_001195755.1 confirmed by sequencing data) of the GPR120 receptor. The Human Short splice variant #2 (NM_001195755.1) is missing an in-frame coding exon compared to variant 1 (the Human Long splice variant NM_181745.3), resulting in a shorter isoform (GPR120-S) lacking a 16 aa protein segment compared to isoform GPR120-L. The assay platform utilizes HEK-293 cells stably transfected to express the Human GPR120 short form. These cells are first loaded with the Ca^+2 sensitive dye, Fluo-4 NW. Upon stimulation, intracellular released Ca^+2 can bind to the dye and alter its fluorescence intensity. This increase in fluorescence signal, and thus the flux in intracellular [Ca^2+], is detected and quantitated by fluorescence imaging using a FLIPR reader. The effect of the agonist is measured as a function of concentration and used to calculate an EC50 based upon a response curve.
In this procedure 2500 cells / well were employed.
A Human GPR120 clone (Genbank accession number NM _001195755.1) was placed into the pcDNA3.1 mammalian expression vector carrying the neomycin resistance gene. A stable mammalian cell was generated by placing the above clone into a HEK293 background. Clonal cells responding to long chain fatty acids had expression levels of GPR120 confirmed by RT-qPCR. Human HEK-GPR120 cells were cultured in Dulbecco's Modified Eagle's Medium (DMEM)/F12 medium supplemented with 10% fetal bovine serum (FBS), 1% L-Glutamine and 1% penicillin/streptomycin and 0.5 mg/ml G-418. Cells were split 2 times a week to keep the cells in the log-phase growth.
In preparation for the assay, HEK cells stably transfected with Human GPR120 (2.5K cells per well in 25uL growth medium) were seeded into 384-well plates and then incubated overnight (37°C, 5% CO2). The next day, the media was changed to 20 µL assay buffer and the cell starved for 1h at 37°C. […]
The assay was performed on a FLIPR plate reader using the following parameters. Baseline was read for 10 seconds at 1 sec intervals. The program was set to transfer 10µL of ligand from compound plate to cell plate after baseline reading. […] After compound addition, each well was read for 300 sec, with measurements collected at 1 sec intervals.
The kinetic data from the FLIPR was based upon a 5 minute window for data collection. The fluorescence of each sample well was used for individual calculations of a normalized RFU value, which was defined as maximum response minus the minimum response. The normalized fluorescence reading (RFU) was calculated as follows: RFU = Fmax−Fmin [formula] […]
On the technique in general: A change in cytosolic calcium serves as a functional read-out for many receptors and channels.

Turning to `O=C(O)CCc1ccc(OCc2c(C(F)(F)F)nsc2-c2ccc(Cl)cc2)c(Cl)c1Cl` [Cpd 55, 3-(2,3-dichloro-4-[[5-(4-chlorophenyl)-3-(trifluoromethyl)-1,2-thiazol4-yl]methoxy]phenyl) propanoic acid], the pEC50 was 6.64. Turning to `O=C(O)CCc1cc(F)c(OCc2c(Cl)nsc2-c2ccc(Cl)cc2)c(F)c1` [Cpd 75, 3-(4-[[3-chloro-5-(4-chlorophenyl)-1,2-thiazol-4-yl]methoxy]-3,5-difluorophenyl)propanoic acid], the pEC50 is 7.38.

The term pEC50 denotes the negative decadic logarithm of the EC50, by convention in mol/L.
